This passage reports IC50 results from patent US20260334439A1, “BCAT2 INHIBITORS” (Agios Pharmaceuticals, Inc., priority 2023, published 2026).

Usually IC50 stands for the point on the concentration scale where inhibition reaches its midpoint.

In assay [1] the target is T1, BCAT2 (Homo sapiens, UniProt O15382).
T1 sequence (O15382 28-392): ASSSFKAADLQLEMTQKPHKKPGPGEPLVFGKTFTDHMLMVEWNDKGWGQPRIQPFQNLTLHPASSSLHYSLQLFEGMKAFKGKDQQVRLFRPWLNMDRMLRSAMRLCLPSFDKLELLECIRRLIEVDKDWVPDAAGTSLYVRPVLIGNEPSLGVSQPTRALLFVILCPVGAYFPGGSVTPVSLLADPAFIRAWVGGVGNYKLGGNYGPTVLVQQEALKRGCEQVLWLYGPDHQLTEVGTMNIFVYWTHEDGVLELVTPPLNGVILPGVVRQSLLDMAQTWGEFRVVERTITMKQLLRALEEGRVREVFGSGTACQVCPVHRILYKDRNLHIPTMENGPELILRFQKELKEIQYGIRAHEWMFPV
The experiment in a line: BCAT2 cell inhibition using engineered A549 cells (MUT KO, BCAT1 KO; 13C6-KMV formation by LC-MS/MS). Format: cell-based. Also noted: expressed endogenous BCAT2; endogenous in cells; host or cells: A549 cells, MUT knockout and BCAT1 knockout. The text has this: Endogenous Methylmalonyl-CoA Mutase (MUT) and Branched Chain Aminotransferase 1 (BCAT1) in A549 cells was knocked out by CRISPR/CAS9 using the targeting system from TransOMIC Technologies. The following guide sequence was cloned into pCLIP-ALL-EFS-Blast vector to target human MUT: […] (SEQ ID NO: 35). The following guide sequence was cloned into pCLIP-ALL-EFS-Puro vector to target human BCAT1: […] (SEQ ID NO: 36). The resulting plasmids were co-transfected into 293T cells with VSV-G, P-PEX, and Fugene-6. Lentivirus was harvested and A549 cells were first transduced with lentivirus targeting MUT and polybrene. After genetic selection with blasticidin clonal selection was performed and validated via western blot analysis to confirm MUT was no longer expressed. These MUT KO cells were then transduced with lentivirus targeting BCAT1 and polybrene. After selection with puromycin clonal selection was performed and clones were validated via western blot analysis to confirm BCAT1 was no longer expressed in these cells. The result was an engineered A549 cell line that expressed endogenous BCAT2.
For KMV cell assays, on day 1, 25,000 cells/100 μL EMEM (10% FBS) were seeded in each well of a 96-well plate. On day 2, medium was replaced with 50 μL fresh EMEM (10% dialyzed FBS) containing 2× the assay concentration of experimental compound. After 15 minutes, 50 μL of 800 uM ^15N,^13C6-Isoleucine in EMEM (10% dialyzed FBS) was added to each well and incubated for 24 hours. On day 3, 50 μL of media from each well was collected and transferred to another 96-well plate for ^13C6-3-Methyl-2-Oxopentanoic Acid (KMV) analysis via LC-MS/MS. In the remaining assay wells 50 μL of Promega Glo CTG reagent was added and luminescence was measured as a cell viability readout.
For LC-MS/MS analysis 5 μL of cell assay media from each well was transferred to a 96-well plate and 45 μL of ACN:0.1% NaOH (50:50, v/v)^+0.20 nM d8-KMV was added and mixed on a shaker. 15 μL was transferred to a new 96-well plate and 15 μL of 10 mg/mL PFBHA solution was added and mixed on the shaker. The reaction was placed on ice for 30 minutes and quenched with 10 μL of ACN: Acetone (50:50, v/v) on a shaker. The resulting mixture was diluted with 100 μL of ACN:0.1% NaOH (50:50, v/v) on a shaker. 10 μL of sample were injected on the Shimadzu 20AD LC-MS/MS to quantify ^13C6-KMV.
Where a compound was tested multiple times, the average value of the tests is reported.

Assay [2] concerns the target T1, BCAT2. The experiment in a line: BCAT2 in vitro enzyme inhibition assay (hBCAT2, glutamate dehydrogenase/diaphorase/resazurin coupled fluorescence read). Conditions: hBCAT2, 1 h preincubation at 25° C., one hour reaction; average where tested multiple times. Format: biochemical. An outline of the steps: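 hBCAT2 (0.33 μg/mL in mix) preincubated 1 h at 25 °C with compound (top 100 μM, 3-fold, 10 points) in Tris pH 8.0/NaCl/BSA; substrate mix added (L-leucine, α-ketoglutarate, GDH, NAD, diaphorase, resazurin), quenched with SDS after 1 h, fluorescence Ex 540/Em 590; duplicates, repeat tests averaged.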

Setting [3] is: read-out: BCAT2 Cell Inhibition (IC50), engineered A549 cells, 24 hours, 13C6-KMV in media, average where tested multiple times.

The structures appear in SMILES notation.

In the case of `O=C1c2cc(F)ccc2OCN1[C@H]1CCC[C@@H](n2c(-c3ccccc3OC(F)F)nc3cnc(-c4nc[nH]n4)cc32)C1` [compound 211], the IC50 in assay [1] and in assay [2] was less than 100 nM in each case.
`CN1C[C@H](NC(=O)c2cc(F)ccn2)C[C@H](n2c(-c3ccccc3OC(F)F)nc3cnc(-c4nc[nH]n4)cc32)C1` [compound 139]: the IC50 in assay [1] and in assay [2] was less than 100 nM in each case.
For the compound `COc1ccc(Cl)cc1C(=O)N[C@H]1CCC[C@@H](n2c(-c3ccccc3F)nc3cnc(-c4nc[nH]n4)cc32)C1` [Example 1, 5-chloro-N-((1S,3R)-3-(2-(2-fluorophenyl)-6-(1H-1,2,4-triazol-3-yl)-1H-imidazo[4,5-c]pyridin-1-yl)cyclohexyl)-2-methoxybenzamide], the IC50 in assay [1] and in assay [2] was less than 100 nM throughout.
On to `O=C(N[C@H]1CCC[C@@H](n2c(-c3ccccc3F)nc3cnc(-c4nc[nH]n4)cc32)C1)c1cc(Cl)ccc1OC1CCOC1` (stereo partly drawn) [Example 83, 5-chloro-N-((1S,3R)-3-(2-(2-fluorophenyl)-6-(1H-1,2,4-triazol-3-yl)-1H-imidazo[4,5-c]pyridin-1-yl)cyclohexyl)-2-((tetrahydrofuran-3-yl)oxy)benzamide], for which the concentration for half-maximal inhibition (IC50) in assay [1] and in assay [2] was less than 100 nM in each case.
On to `CO[C@H]1C[C@H](NC(=O)c2cc(F)ccn2)C[C@H](n2c(-c3ccccc3F)nc3ccc(-c4nc[nH]n4)cc32)C1` [Example 221, 4-fluoro-N-((1S,3R,5R)-3-(2-(2-fluorophenyl)-6-(1H-1,2,4-triazol-3-yl)-1H-benzo[d]imid-azol-1-yl)-5-methoxycyclohex-yl)picolinamide], for which the half-maximal inhibitory concentration (IC50) in assay [1] (setting [3]) is more than 1000 nM; in assay [2], less than 100 nM.
As for `CN1C[C@H](NC(=O)c2cc(F)ccc2F)C[C@H](n2c(-c3ccccc3F)nc3cnc(-c4nc[nH]n4)cc32)C1` [Example 153, 2,5-difluoro-N-((3R,5S)-5-(2-(2-fluorophenyl)-6-(1H-1,2,4-triazol-3-yl)-1H-imidazo[4,5-c]pyridin-1-yl)-1-methylpiperidin-3-yl)benzamide], the half-inhibitory concentration (IC50) is 100 to 500 nM in assay [1] and less than 100 nM in assay [2].
Consider `CO[C@H]1C[C@H](N2Cc3ccc(F)cc3C2=O)C[C@H](n2c(-c3ccccc3OCCO)nc3ccc(-c4ncccn4)cc32)C1` [Example 194, 6-fluoro-2-((1R,3S,5R)-3-(2-(2-(2-hydroxyethoxy)phenyl)-6-(pyrimidin-2-yl)-1H-benzo[d]imidazol-1-yl)-5-methoxycyclohexyl)isoindolin-1-one], for which the concentration for half-maximal inhibition (IC50) in assay [1] and in assay [2] was less than 100 nM each time.
For `O=C1c2cc(F)ccc2CN1[C@H]1CCC[C@@H](n2c(-c3c(F)cccc3F)nc3cnc(-c4ncccn4)cc32)[C@@H]1O` [Example 187, 2-((1S,2S,3R)-3-(2-(2,6-difluorophenyl)-6-(pyrimidin-2-yl)-1H-imidazo[4,5-c]pyridin-1-yl)-2-hydroxycyclohexyl)-6-fluoroisoindolin-1-one], the IC50 is 100 to 500 nM in assay [1] and less than 100 nM in assay [2].
Taken in the same sequence, the figures for `CO[C@H]1C[C@H](N2Cc3ccc(F)cc3C2=O)C[C@H](n2c(-c3ccccc3OCCO)nc3ccc(-c4ncco4)cc32)C1` [Example 241, 6-fluoro-2-((1R,3S,5R)-3-(2-(2-(2-hydroxyethoxy)phenyl)-6-(oxazol-2-yl)-1H-benzo[d]imid-azol-1-yl)-5-methoxycyclohex-yl)isoindolin-1-one] were 100 to 500 nM and less than 100 nM.
Taken in the same sequence, the figures for `O=C1c2cc(Cl)ccc2CN1[C@H]1CCC[C@@H](n2c(-c3ccccc3OCCO)nc3cnc(-c4nc[nH]n4)cc32)C1` [Example 172, 6-chloro-2-((1S,3R)-3-(2-(2-(2-hydroxyethoxy)phenyl)-6-(1H-1,2,4-triazol-3-yl)-1H-imidazo[4,5-c]pyridin-1-yl)cyclohexyl)isoindolin-1-one] were less than 100 nM and less than 100 nM.
Consider `CC(C)Oc1ccc(Cl)cc1C(=O)N[C@H]1CCC[C@@H](n2c(-c3ccccc3C#N)nc3cnc(-c4nc[nH]n4)cc32)C1` [Example 36, 5-chloro-N-((1S,3R)-3-(2-(2-cyanophenyl)-6-(1H-1,2,4-triazol-3-yl)-1H-imidazo[4,5-c]pyridin-1-yl)cyclohexyl)-2-isopropoxybenzamide], for which the IC50 in assay [1] and in assay [2] was less than 100 nM throughout.
With `CCOc1ccc(Cl)cc1C(=O)N[C@H]1CCC[C@@H](n2c(-c3ccccc3F)nc3cnc(-c4nc[nH]n4)cc32)C1` [Example 6, 5-chloro-2-ethoxy-N-((1S,3R)-3-(2-(2-fluorophenyl)-6-(1H-1,2,4-triazol-3-yl)-1H-imidazo[4,5-c]pyridin-1-yl)cyclohexyl)benzamide], the IC50 in assay [1] and in assay [2] was less than 100 nM each time.
Turning to `COCCOc1ccc(F)cc1C(=O)N[C@H]1CCC[C@@H](n2c(-c3ccccc3F)nc3cnc(-c4nc[nH]n4)cc32)C1` [Example 59, 5-fluoro-N-((1S,3R)-3-(2-(2-fluorophenyl)-6-(1H-1,2,4-triazol-3-yl)-1H-imidazo[4,5-c]pyridin-1-yl)cyclohexyl)-2-(2-methoxyethoxy)benzamide], the half-inhibitory concentration (IC50) in assay [1] and in assay [2] was less than 100 nM in each case.
For `CN1C[C@@H](NC(=O)c2cc(F)ccn2)C[C@@H](n2c(-c3ccccc3F)nc3cnc(-c4nc[nH]n4)cc32)C1` [Example 133, 4-fluoro-N-((3S,5R)-5-(2-(2-fluorophenyl)-6-(1H-1,2,4-triazol-3-yl)-1H-imidazo[4,5-c]pyridin-1-yl)-1-methylpiperidin-3-yl)picolinamide], the figures for the IC50 in assay [1] (setting [3]) and in assay [2] were more than 1000 nM and 100 to 500 nM, respectively.
In the case of `CN1C[C@H](NC(=O)c2cc(Cl)ccn2)C[C@H](n2c(-c3ccccc3F)nc3cnc(-c4nc[nH]n4)cc32)C1` [Example 130, 4-chloro-N-((3R,5S)-5-(2-(2-fluorophenyl)-6-(1H-1,2,4-triazol-3-yl)-1H-imidazo[4,5-c]pyridin-1-yl)-1-methylpiperidin-3-yl)picolinamide], the IC50 in assay [1] and in assay [2] was less than 100 nM in each case.
With `O=C(N[C@H]1CCC[C@@H](n2c(-c3ccccn3)nc3cnc(-c4nc[nH]n4)cc32)C1)c1cc(Cl)ccn1` [Example 25, 4-chloro-N-((1S,3R)-3-(2-(pyridin-2-yl)-6-(1H-1,2,4-triazol-3-yl)-1H-imidazo[4,5-c]pyridin-1-yl)cyclohexyl)picolinamide], the IC50 in assay [1] is 100 to 500 nM; in assay [2], less than 100 nM.
Taken in the same sequence, the figures for `O=C(N[C@H]1CCC[C@@H](n2c(-c3ccccc3F)nc3cnc(-c4ncn(C(F)F)n4)cc32)[C@@H]1O)c1cc(Cl)ccn1` [compound 118] were less than 100 nM and less than 100 nM.
The like results for `O=C(N[C@H]1CCC[C@@H](n2c(-c3c(O)cccc3F)nc3ccc(-c4nc[nH]n4)cc32)C1)c1cc(Cl)ccn1` [Example 227, 4-chloro-N-((1S,3R)-3-(2-(2-fluoro-6-hydroxyphenyl)-6-(1H-1,2,4-triazol-3-yl)-1H-benzo[d]imidazol-1-l)cyclohexyl)picolin-amide] were, in that order, 100 to 500 nM and less than 100 nM.
